In US7358379B2, “Steroid conjugates, preparation thereof and the use thereof” (Bionature E.A. Limited, priority 2002, dated 2008):

Assays:
[1] = test system: membrane testosterone receptors in LNCaP cells; experiment: Displacement binding of [3H]testosterone on LNCaP cell membranes; design: species or system human; details: 5 nM [3H]testosterone, competitor 10^-12-10^-6 M
Experimental: (§1) Cells, cultured in 150 cm^2 flasks without serum, were washed twice with phosphate-buffered saline (PBS), removed by scraping and centrifuged at 1500 rpm. Pelleted cells were homogenized by sonication in 50 mM Tris-HCl buffer pH 7.4 containing freshly added protease inhibitors (10 μg/ml PMSF and 1 μg/ml aprotinin). Unbroken cells were removed by centrifugation at 2500 g for 15 min. Membranes were obtained by centrifugation at 45,000 g for 1 hour, and washed once by the same buffer. Protein concentration was measured by the method of Bradford.
(§2) Saturation binding experiments were performed in a final volume of 0.1 ml, containing cell membranes at a final protein concentration of 2 mg/ml and at least 6 different concentrations of [^3H]testosterone (ranging 2-50 nM) without (total binding) or with (non-specific binding) a 100-fold molar excess of unlabelled androgen (DHT). […] In both types of binding experiments, after an overnight incubation at 4° C., bound radioactivity was separated by filtration under reduced pressure through GF/B filters previously soaked in 0.5% polyethylenimine (PEI) in water and rinsed three times with ice-cold Tris-HCl buffer. Filters were mixed with 4 ml scintillation cocktail and the bound radioactivity was counted in a scintillation counter (Tricarb, Series 4000, Packard) with 60% efficiency for Tritium. […]

[2] = test system: membrane testosterone receptors in LNCaP cells; experiment: Saturation binding of [3H]testosterone to LNCaP cell membranes; design: species or system human; details: [3H]testosterone 2-50 nM, LNCaP membranes 2 mg/ml, overnight 4° C., non-specific binding with excess DHT; read-out: KD (Scatchard analysis)
Experimental: as §1, §2

[3] = test system: FAK→PI-3 kinase→Cdc42/Rac1→actin reorganization in LNCaP cells; experiment: Signalling FAK, PI-3 kinase, Cdc42/Rac1, actin reorganization (immunoprecipitation, kinase assays, affinity precipitation); format: cell-based, human
Experimental: Testosterone-BSA or DHT-treated, as well as untreated (control) cells were washed three times with ice-cold PBS and suspended in cold lysis buffer containing 1% Nonidet P-40, 20 mM Tris pH 7.4 and 137 mM NaCl, supplemented with protease and phosphatase inhibitors. Cleared lysates were preadsorbed with protein A-Sepharose for 1 h at 4° C., centrifuged and the supernatants (equal amounts of protein) were subjected to immunoprecipitation using the indicated antibodies and the protein A-Sepharose beads.
The lipid kinase activity of PI-3 kinase was measured by the method of Auger et al with minor modifications. Protein A-Sepharose beads containing immunoprecipitated phosphotyrosine proteins were washed three times with Buffer A (20 mM Tris pH 7.4, 137 mM NaCl, 1 mM CaCl2, 1 mM MgCl2, 1% Nonidet P-40, 0.1 mM Na3VO4), three times with 5 mM LiCl in 0.1 M Tris (pH 7.4) and twice with TNE (10 mM Tris pH 7.4, 150 mM NaCl, 5 mM EDTA, 0.1 mM Na3VO4). […]
For immunoblot analysis, the cell lysates or the immunoprecipitates were suspended in Laemmli's sample buffer and separated by SDS-PAGE. […] Blots were developed using the ECL system and the band intensities were quantified by PC-based image analysis (Image Analysis Inc., Ontario, Canada). […]

[4] = test system: prostate cancer LNCaP cells; experiment: Cell number by tetrazolium salt assay; format: cell-based, human; details: 24 hours
Experimental: The human prostate cancer LNCaP cell line, originally isolated from a lymph node metastasis of prostate adenocarcinoma, was purchased from DSMZ (Braunschweig, Germany). Cells were cultured in RPMI 1640 medium supplemented with 10% heat inactivated fetal bovine serum (FBS) at 37° C. in a humidified atmosphere of 5% CO2 in air. They were subcultured once a week and incubated in serum-free medium for 24 h before any experiment. All culture media were purchased from Gibco BRL (Life Technologies, Paisley, UK).
Cell number was assayed using the tetrazolium salt assay. Cells were incubated for 3 h at 37° C. with the tetrazolium salt (3-(4,5 dimethylthiazol-2-yl)-2,5 diphenyl tetrazolium bromide, Sigma, St Louis, Mo.). Living cells reduced the dye to purple formazan seen as dark blue crystals. At the end of the incubation period they were dissolved with propanol-1 and the absorbance was measure at 575 nm, within one hour.
In view of the above results, we incubated prostate cancer LNCaP cells with testosterone-BSA alone (10^−7 M) or together with Taxol® (10^−8 M) for 24 hours. […] In addition, a potentiation of the action of Taxol® by ˜7% was also found. […]

[5] = test system: actin cytoskeleton of LNCaP human prostate cancer cells; experiment: Determination of monomeric and polymerized actin; format: cell-based; details: 10^-7 M, 10 min
Experimental: For measurements of the monomeric (Triton soluble) and polymerized (Triton insoluble) actin, LNCaP cells were incubated for 10 min with or without DHT or testosterone-BSA (10^−7 M). Then, 500 μl of Triton-extraction buffer (0.3% TritonX-100, 5 mM Tris, pH 7.4, 2 mM EGTA, 300 mM sucrose, 2 μM phalloidin, 1 mM PMSF, 10 μg/ml leupeptin, 20 μg/ml aprotinin, 1 mM sodium orthovanadate, and 50 mM NaF) were added, and the mixture was incubated for 5 minutes on ice. After removing the buffer, soluble proteins were precipitated with equal volumes of 6% PCA. The Triton-insoluble fraction remaining on the plate was precipitated with 1 ml of 3% PCA. Equal volumes of each fraction were subjected to SDS-polyacrylamide gel electrophoresis (SDS-PAGE). The resulting protein-bands were transferred onto nitrocellulose membrane, and the membrane was blocked with 5% nonfat dry milk in TBS-T (20 mM Tris pH 7.6, 137 mM NaCl, 0.05% Tween-20) for 1 h at room temperature. Antibody solutions (in TBS-T) were added for 1 h at room temperature [monoclonal mouse anti-actin first antibody (Amersham-Pharmacia, Bukinghamshire, UK) and second horseradish peroxidase-coupled antibody (Chemicon, Temecula, Calif.)]. Blots were developed using the ECL system (Amersham-Pharmacia, Bukinghamshire, UK) and the band intensities were quantified by PC-based image analysis (Image Analysis Inc., Ontario, Canada). […]

[6] = test system: membrane testosterone receptors in LNCaP cells; experiment: Flow cytometry detection of membrane binding on LNCaP cells; design: species or system human; details: 10^-7 M
Experimental: LNCaP cells, cultured in serum free medium for 24 hrs, were detached from the culture flask by scraping and suspended in PBS at a density of 10^6 cells/ml. They were incubated at room temperature with 10^−7 M testosterone-BSA-FITC conjugate for different periods of time (1 min to 1 hour). A thousand-fold BSA-FITC was used to determine non-specific binding. Cells were analysed by flow cytometry using a Coulter Epics L-MCL apparatus (Beckman-Coulter Inc. Foullerton Calif., USA) in a sample size of 10,000 cells gated on the basis of forward and side scatter. Testosterone3-(O-carboxymethyl)oxime-BSA-FITC (named testosterone-BSA-FITC), testosterone3-(O-carboxymethyl)oxime-BSA (named testosterone-BSA), estradiol6-(O-carboxymethyl)oxime-BSA-FITC (named estradiol-BSA-FITC), progesterone3-(O-carboxymethyl)oxime-BSA-FITC (named progesterone-BSA-FITC) and BSA-FITC were obtained from Sigma (St Louis, Mo.).
(§3) The presence of membrane testosterone receptors was equally identified using the testosterone analog testosterone3-(O-carboxymethyl)oxime-BSA-FITC, obtained from Sigma (St Louis, Mo.). This analog is not capable to penetrate the cells, because of a covalent attachment of the steroid with BSA. […] The membrane binding was equally verified by confocal laser microscopy, as shown in the right panel of FIG. 2.

[7] = test system: LNCaP tumors in nude mice; experiment: In vivo effect in nude mice bearing implanted LNCaP tumors; details: four weeks
Experimental: FIG. 9 presents the effect of testosterone-BSA administration in nude mice, bearing implanted tumors. Arrows show the injection times of testosterone-BSA (500 μl of a 5×10^−6 M solution) with or without addition of 10 mg/kg Taxol®.
Nude mice were injected in the back with 5×10^6 LNCaP cells diluted in Matrigel® (Sigma, St Louis, Mo.) in a total volume of 0.1 ml. After 4 weeks, macroscopical tumors were developed, and treatment was initiated, as follows: Drugs, diluted in PBS were injected intraperitoneally 3 times per week, in a total volume of 0.5 ml. Animals were divided in four groups: The first group received 5×10^−6 M BSA. The second group was injected with 5×10^−6 M testosterone-BSA conjugate. The third group was injected with 10 mg/ml Taxol®, while in the fourth group a combination of testosterone-BSA and Taxol® was introduced. Tumors were measured after four weeks of treatment. Tumors were excised, measured, weighted and send to a pathologist for further analysis.
As presented in FIG. 9, testosterone-BSA induced a time-dependent decrease in tumor mass by 53%. Addition of Taxol® produces a dramatic decrease of tumor weight by 77%. […] Therefore it is possible that the decrease if tumor mass could be greater for longer periods of treatment In addition, apoptosis was observed histologically in all tumors studied.

LNCaP cells = experiment: Confocal laser microscopy of membrane binding on LNCaP cells; format: cell-based, human; details: 30 min incubation
Experimental: LNCaP cells were allowed to grow on poly-L-lysine coated glass coverslips for at least 48 hours before culture medium was replaced with serum free medium. After a 24-hour period, cells were washed twice with PBS and incubated with Testosterone-BSA-FITC for 30 min in the presence or in the absence of DHT. As a negative control BSA-FITC was used. Cells were then washed twice with PBS and fixed with 2% PFA in PBS for 30 min. Coverslips were mounted on to slides using a 1:1 (v/v) mixture of glycerol and Vestashield (Vector, Burlingame, Calif.). Specimens were analysed using a confocal laser scanning microscope (CLSM) (Leica TCS-NT, Lasertechnik, Heidelberg, Germany).
as §3

C[C@]12CCC(=O)C[C@@H]1CC[C@@H]1[C@@H]2CC[C@]2(C)[C@@H](O)CC[C@@H]12 [DHT]
displacement of radiolabeled testosterone [1]: produced a displacement of radiolabeled testosterone

CC(=O)[C@H]1CC[C@H]2[C@@H]3CCC4=CC(=O)CC[C@]4(C)[C@H]3CC[C@]12C [progesterone]
lower affinity in displacing radiolabelled testosterone (fold) ([1]; compared with DHT): 10^2 fold

C[C@]12CC[C@H]3[C@@H](CCC4=CC(=O)CC[C@@]43C)[C@@H]1CC[C@@H]2O [testosterone]
Kd [2]: 10.9 nM
activation of signalling cascade FAK→PI-3 kinase→Cdc42/Rac1→actin reorganization [3]: less active than testosterone-BSA conjugate

testosterone3-(O-carboxymethyl)oxime-BSA [testosterone-BSA]
potentiation of the action of Taxol® ([4]; testosterone-BSA 10^-7 M together with Taxol® 10^-8 M): ~7%
decrease of cells ([4]; testosterone-BSA alone 10^-7 M): 50%
ratio of soluble (monomeric) to insoluble (polymerised) actin [5]: significant decrease
time at which association with membrane receptors was observed ([6]; flow cytometry): 1 min
time at which association with membrane receptors was maximal ([6]; flow cytometry, unchanged after 30 min): 10 min
membrane binding by flow cytometry ([6]; room temperature): specific membrane binding
decrease in tumor mass ([7]; nude mice with LNCaP tumors, testosterone-BSA 5×10^-6 M i.p. 3 times per week): 53%
decrease of tumor weight ([7]; nude mice with LNCaP tumors, testosterone-BSA 5×10^-6 M with addition of Taxol®, i.p. 3 times per week): 77%
tolerance of treatment ([7]; nude mice, 0.5 ml of 5×10^-6 M intraperitoneally 3 times per week): supported very well
localisation of staining (internalization) (LNCaP cells): only membrane staining was found
